{"source": "patent US8889621B2", "about": "“Inhibiting binding of FGF23 to the binary FGFR-Klotho complex for the treatment of hypophosphatemia” (New York University, priority 2009, dated 2014)", "molecules": {"B1": {"name": "FGF23^180-251: 72-amino acid C-terminal tail of human FGF23 (S180 to I251), expressed in E. coli (protein, listed as Homo sapiens)", "chain": "SAEDDSERDPLNVLKPRARMTPAPASCSQELPSAEDNSPMASDPLGVVRGGRVNTHAGGTGPEGCRPFAKFI"}, "B2": {"name": "FGF23^28-251: human FGF23 (A28 to I251), bioactive full-length ligand expressed in E. coli (protein, listed as Homo sapiens)", "chain": "ASPLLGSSWGGLIHLYTATARNSYHLQIHKNGHVDGAPHQTIYSALMIRSEDAGFVVITGVMSRRYLCMDFRGNIFGSHYFDPENCRFQHQTLENGYDVYHSPQYHFLVSLGRAKRAFLPGMNPPPYSQFLSRRNEIPLIHFNTPIPRRHTRSAEDDSERDPLNVLKPRARMTPAPASCSQELPSAEDNSPMASDPLGVVRGGRVNTHAGGTGPEGCRPFAKFI"}}, "key": {"[1]": {"system": "binary FGFR-Klotho complexes (FGFR1c, FGFR3c, or FGFR4)", "test": "Co-immunoprecipitation based competition assay, HEK293-Klotho lysates", "assay_type": "binding", "excerpt": "Co-immunoprecipitation may also be used to determine that an agent specifically binds the binary FGFR-Klotho complex. One aspect of the present invention utilizes co-immunoprecipitation studies. Subconfluent cultures of a HEK293 cell line ectopically expressing the FLAG-tagged membrane-spanning form of murine Klotho were transfected with expression vectors for V5-tagged FGFR1c, FGFR3c, or FGFR4. Two days later, the cells were lysed, and FGFR-Klotho complexes were isolated from cell lysate using anti-V5 agarose beads. The beads were then incubated with either FGF23^180-251 or FGF23^28-251 alone, or with mixtures of FGF23^28-251 with either increasing FGF23^180-251 or increasing FGF23^180-205. Bead-bound proteins were resolved on SDS-polyacrylamide gels, transferred to nitrocellulose membranes, and labeled using antibodies to Klotho, FGF23, and V5 epitope tag.\nIn parallel, subconfluent HEK293-Klotho cells (Kurosu et al., “Regulation of Fibroblast Growth Factor-23 Signaling by Klotho,” J Biol Chem 281(10):6120-6123 (2006), which is hereby incorporated by reference in its entirety) were transfected with expression vectors for V5-tagged FGFR1c, FGFR3c, or FGFR4 (Kurosu et al., “Regulation of Fibroblast Growth Factor-23 Signaling by Klotho,” J Biol Chem 281(10):6120-6123 (2006), which is hereby incorporated by reference in its entirety) and binding of FGF23 proteins/peptides to Klotho-FGFR complexes isolated from cell lysate was analyzed. Two days later, the cells were lysed (Kurosu et al, “Suppression of Aging in Mice by the Hormone Klotho,” Science 309(5742):1829-1833 (2005), which is hereby incorporated by reference in its entirety), and FGFR-Klotho complexes were isolated from cell lysate using anti-V5 agarose beads (Sigma-Aldrich) (Kurosu et al., “Regulation of Fibroblast Growth Factor-23 Signaling by Klotho,” J Biol Chem 281(10):6120-6123 (2006), which is hereby incorporated by reference in its entirety). The beads were then incubated with either FGF23^180-251 (1 nM) or FGF23^28-251 (1 nM) alone, or with mixtures of FGF23^28-251 (1 nM) with either increasing FGF23^180-251 (2 to 76 nM) or increasing FGF23^180-205 (0.1 to 10 μM). Bead-bound proteins were resolved on SDS-polyacrylamide gels, transferred to nitrocellulose membranes, and labeled using antibodies to Klotho (KM2119, (Kato et al., “Establishment of the Anti-Klotho Monoclonal Antibodies and Detection of Klotho Protein in Kidneys,” Biochemical Biophysical Res Communications 267(2):597-602 (2000), which is hereby incorporated by reference in its entirety)), FGF23 (R&D systems), and V5 epitope tag (Invitrogen)."}, "[2]": {"system": "opossum kidney cell line OKP", "assay_type": "cell-based", "conditions": "for effect on phosphate uptake when applied alone: 500 nM", "excerpt": "The effects of FGF23 proteins/peptides on sodium-coupled phosphate uptake were studied in the opossum kidney cell line OKP (Miyauchi et al., “Stimulation of transient elevations in cytosolic Ca2+ is related to inhibition of Pi transport in OK cells,” Am J Physiol 259(3 Pt 2):[…]-493 (1990), which is hereby incorporated by reference in its entirety). The cell line has many characteristics of renal proximal tubule epithelium, including sodium gradient-dependent phosphate transport and sensitivity to parathyroid hormone (Miyauchi et al., “Stimulation of transient elevations in cytosolic Ca2+ is related to inhibition of Pi transport in OK cells,” Am J Physiol 259(3 Pt 2):[…]-493 (1990), which is hereby incorporated by reference in its entirety). OKP cells also express FGFR1-4 and Klotho (see next methods section). OKP cells were grown in culture as described previously (Hu et al., “Dopamine Acutely Stimulates Na+/H+ Exchanger (NHE3) Endocytosis Via Clathrin-coated Vesicles: Dependence on Protein Kinase A-mediated NHE3 Phosphorylation,” J Biol Chem 276(29):26906-26915 (2001), which is hereby incorporated by reference in its entirety). Cells grown in 24-well plates were stimulated for 4 h with FGF23^28-251 (0.5 to 1 nM), FGF23^180-251 (500 nM), FGF23^180-205 (500 nM), or mixtures of FGF23^28-251 (1 nM) with either FGF23^180-251 (1 to 500 nM) or FGF23^180-205 (1 to 500 nM). The 1 nM concentration of FGF23^28-251 was chosen for competition experiments with FGF23 C-terminal peptides because at this concentration, half-maximum inhibition of phosphate uptake is reached. After stimulation, the cells were rinsed with Na^+-free solution followed by 5 min incubation with uptake solution containing 100 μM KH2^32PO4 (2 mCi/ml, Perkin Elmer). The reaction was stopped by aspiration of uptake solution and washing cells with ice-cold stop solution (10 mM HEPES pH 7.4, 140 mM NaCl, 1 mM MgCl2). Each transport reaction was performed in triplicates."}, "[3]": {"conditions": "co-immunoprecipitation competition"}}, "note": "Entries after “also recorded” stand apart in the source; their conditions may differ. Like-named read-outs stand apart in the source and are kept apart here. Peptide text beside a SMILES is read from it.", "data": [{"molecule": "CSCC[C@H](NC(=O)[C@H](CCCNC(=N)N)NC(=O)[C@H](C)NC(=O)[C@H](CCCNC(=N)N)NC(=O)[C@@H]1CCCN1C(=O)[C@H](CCCCN)NC(=O)[C@H](CC(C)C)NC(=O)[C@@H](NC(=O)[C@H](CC(N)=O)NC(=O)[C@H](CC(C)C)NC(=O)[C@@H]1CCCN1C(=O)[C@H](CC(=O)O)NC(=O)[C@H](CCCNC(=N)N)NC(=O)[C@H](CCC(=O)O)NC(=O)[C@H](CO)NC(=O)[C@H](CC(=O)O)NC(=O)[C@H](CC(=O)O)NC(=O)[C@H](CCC(=O)O)NC(=O)[C@H](C)NC(=O)[C@@H](N)CO)C(C)C)C(=O)N[C@H](C(=O)N1CCC[C@H]1C(=O)N[C@@H](C)C(=O)N1CCC[C@H]1C(=O)N[C@@H](C)C(=O)N[C@@H](CO)C(=O)O)[C@@H](C)O", "note": "[FGF23^180-205] (H-SAEDDSERDPLNVLKPRARMTPAPAS-OH; N-terminus and C-terminus assumed)", "values": [{"measurement": "inhibition of binding (co-precipitation) of FGF23^28-251 with binary FGFR-Klotho complexes", "setting": "[1]; [3]", "value": "able to inhibit binding; also recorded: inhibited co-precipitation"}, {"measurement": "reduced potency compared to the FGF23^180-251 peptide", "setting": "[1]; [3]", "value": "over 100 fold"}, {"measurement": "effect on phosphate uptake when applied alone", "setting": "[2]; 4 h", "value": "neither of the two FGF23 C-terminal peptides altered phosphate uptake"}, {"measurement": "IC50", "setting": "[2]; 4 h", "value": "100 to 500", "unit": "nM"}, {"measurement": "antagonism of FGF23 inhibition of phosphate uptake", "setting": "[2]; FGF23^28-251 1 nM, 4 h stimulation", "value": "similar, albeit less potent antagonistic effect"}]}, {"molecule": "B1", "values": [{"measurement": "molar excess that completely blocked binding of FGF23^28-251 to the FGFR-Klotho complex", "setting": "[1]; FGF23^28-251 1 nM", "value": 76, "unit": "fold molar excess"}, {"measurement": "inhibition of binding (co-precipitation) of FGF23^28-251 with binary FGFR-Klotho complexes", "setting": "[1]; [3]", "value": "can inhibit binding"}, {"measurement": "effect on phosphate uptake when applied alone", "setting": "[2]; 4 h", "value": "neither of the two FGF23 C-terminal peptides altered phosphate uptake"}]}, {"molecule": "B2", "values": [{"measurement": "IC50", "setting": "[2]; 4 h stimulation, read-out: concentration at which half-maximum inhibition of phosphate uptake is reached", "value": 1, "unit": "nM"}]}]}
